# Measurements reported in patent US11787766B2, “Compound having PD-L1 inhibitory activity, preparation method therefor and use thereof” (SHANGHAI ENNOVABIO PHARMACEUTICALS CO., LTD., priority 2017, dated 2023).
# Target: PD-L1 (Homo sapiens (Human), UniProt Q9NZQ7)
# Experiment: PD-1/PD-L1 homogeneous time-resolved fluorescence (HTRF) binding assay
# Settings: Cisbio PD1/PD-L1 binding assay kit
# Description: PD-1/PD-L1 homogeneous time-resolved fluorescence (HTRF) detection technology was used to detect the binding ability of the compound to PD-L1.
# PD1/PD-L1 binding assay kit (Cisbio, Cat #63ADK000CPDEC) was used, which includes two proteins, Tag 1-PD-L1 and Tag 2-PD-1, and two antibodies, Anti-Tag1-Eu^3+ and Anti-Tag2-XL 665. Assay principle: Anti-tag1-Eu^3+ is the HTRF donor, and Anti-Tag2-XL 665 is the HTRF acceptor. When Tag 1-PD-L1 and Tag 2-PD-1 interact, the added HTRF donor and the acceptor are close to each other. After the donor receives the excitation energy, it transfers part of the energy to the acceptor, thus producing 665 nm emission signal. When the compound is added to block the PD1/PD-L1 interaction, only 620 nm emission light was detected. The inhibitory effect of the compound was determined by analyzing the ratio of 665 nm/620 nm. Tag 1-PD-L1 was diluted with Diluent buffer (cat #62DLBDDF) to a working concentration of 10 nM, Tag 2-PD-1 was diluted with Diluent buffer to a working concentration of 500 nM, and Anti-Tag1-Eu^3+ was diluted with detection buffer (cat #62DB1FDG) by 1:100, Anti-Tag2-XL 665 was diluted with detection buffer by 1:20, and the test compound was diluted with Diluent buffer to a final concentration of 2×. In a 384-well plate, 2 μL of compound was added to each well, and then 4 μL of Tag 1-PD-L1, 4 μL of Tag 2-PD-1 were added and incubated at room temperature for 15 minutes. 5 μL Anti-Tag1-Eu^3+ and 5 μL Anti-Tag2-XL 665 were added and incubated overnight at room temperature, and detected with BioTek Synergy™ Neo2 Multifunctional Microplate Reader to obtain the ratio of 665 nm/620 nm. The IC50 curve was fitted by GraphPad Prism 5.02.
# Sequence of PD-L1 (Q9NZQ7 19-238): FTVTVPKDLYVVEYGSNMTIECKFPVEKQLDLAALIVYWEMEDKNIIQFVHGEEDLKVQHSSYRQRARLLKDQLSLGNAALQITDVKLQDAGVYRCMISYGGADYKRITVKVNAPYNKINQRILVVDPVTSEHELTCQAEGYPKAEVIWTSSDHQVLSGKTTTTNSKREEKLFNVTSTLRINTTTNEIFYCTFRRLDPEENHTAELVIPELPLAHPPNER
row,SMILES,IC50
1,"COc1nc(OCc2cccc(-c3cccc(CO)c3C)c2C)ccc1CNC(=O)C(F)(F)F [Compound 1, 2,2,2-trifluoro-N-((6-((3′-(hydroxymethyl)-2,2′-dimethyl-[1,1′-biphenyl]-3-yl)methoxy)-2-methoxypyridin-3-yl)methyl)acetamide]",> 1000 nM
2,"Cc1c(CO)cccc1-c1cccc(COc2cccc(CN)n2)c1C [Compound 7, (3′-(((6-(aminomethyl)pyridin-2-yl)oxo)methyl)-2,2′-dimethyl-[1,1′-biphenyl]-3-yl)methanol]",> 1000 nM
3,COc1nc(OCc2cccc(-c3cccc(CO)c3C)c2C)ccc1N [Compound 8],> 1000 nM
4,"COc1cc(OCc2cccc(-c3cccc(CO)c3C)c2C)cc(OC)c1CNCCNC(C)=O [Compound 10, N-(2-((4-((3′-(hydroxymethyl)-2,2′-dimethyl-[1,1′-biphenyl]-3-yl)methoxy)-2,6-dimethoxybenzyl)amino)ethyl) acetamide]",> 1000 nM
5,"COc1cc(N)cc(OCc2cccc(-c3cccc(CO)c3C)c2C)n1 [Compound 12, (3′-(((4-amino-6-methoxypyridin-2-yl)oxo)methyl)-2,2′-dimethyl-[1,1′-biphenyl]-3-yl)methanol]",> 1000 nM
6,"Cc1c(CO)cccc1-c1cccc(COc2cccc(N)n2)c1C [Compound 13, (3′(((6-aminopyridin-2-yl)oxo)methyl)-2,2′-dimethyl-[1,1′-biphenyl]-3-yl) methanol]",> 1000 nM
7,"COc1nc(OCc2cccc(-c3cccc(CO)c3C)c2C)ccc1CCN [Compound 15, (3′-(((5-(2-aminoethyl)-6-methoxypyridin-2-yl)oxo)methyl)-2,2′-dimethyl-[1,1′-biphenyl]-3-yl) methanol]",100 to 1000 nM
8,"COc1nc(OCc2cccc(COc3ccc(CNCCNC(C)=O)c(OC)n3)n2)ccc1CNCCNC(C)=O [Compound 18, N,N-((((((pyridine-2,6-diyl-bis (methylene))bis (oxo))bis (2-methoxypyridine-6,3-diyl))bis (methylene))bis (azetanediyl))bis (ethane-2,1-diyl)) diacetamide]",> 1000 nM
9,COc1nc(OCc2cccc(COc3ccc(CNCCNC(C)=O)c(OC)n3)c2C)ccc1CNCCNC(C)=O [Compound 19],100 to 1000 nM
10,COc1nc(OCc2cccc(-c3cccc(COc4ccc(CNCC(C)(C)O)c(OC)n4)c3C)c2C)ccc1CNCC(C)(C)O [Compound 20],10 to 100 nM
11,COc1nc(OCc2cccc(-c3cccc(COc4ccc(CNCCC(N)=O)c(OC)n4)c3C)c2C)ccc1CNCCC(N)=O [Compound 22],10 to 100 nM
12,COc1nc(OCc2cccc(-c3ccccc3)c2C)ccc1CN [Compound 23],100 to 1000 nM
13,COc1nc(OCc2cccc(-c3cccc(COc4ccc(CNC5CCCCC5O)c(OC)n4)c3C)c2C)ccc1CNC1CCCCC1O (centres unmarked) [Compound 24],10 to 100 nM
14,CC(=O)NCCNCC(=O)Nc1cnn(Cc2cccc(-c3cccc(Cn4cc(NC(=O)CNCCNC(C)=O)cn4)c3C)c2C)c1 [Compound 25],> 1000 nM
15,COc1nc(OCc2cccc(-c3cccc(COc4ccc(CNCCNC(C)=O)c(OC)n4)c3C)c2)ccc1CNCCNC(C)=O [Compound 28],10 to 100 nM
16,COc1nc(OCc2cccc(-n3nc(C)c(COc4ccc(CNCCNC(C)=O)c(OC)n4)c3C)c2C)ccc1CNCCNC(C)=O [Compound 29],> 1000 nM
17,COc1nc(OCc2cccc(-n3nnc(COc4ccc(CNCCNC(C)=O)c(OC)n4)c3C)c2C)ccc1CNCCNC(C)=O [Compound 31],> 1000 nM

row,SMILES,IC50
1,Cc1c(COc2ccc3[nH]c(CO)cc3n2)cccc1-c1cccc(COc2ccc3[nH]c(CO)cc3n2)c1C [Compound 32],> 1000 nM
2,COc1nc(OCc2cccc(-c3cccc(COc4ccc(CNCC(C)C(=O)O)c(OC)n4)c3C)c2C)ccc1CNCC(C)C(=O)O (centres unmarked) [Compound 33],10 to 100 nM
3,CC(=O)NCCNCc1cc2nc(OCc3cccc(-c4cccc(COc5ccc6[nH]c(CNCCNC(C)=O)cc6n5)c4C)c3C)ccc2[nH]1 [Compound 34],10 to 100 nM
4,COc1nc(OCc2cccc(-c3csc(COc4ccc(CNCCNC(C)=O)c(OC)n4)c3C)c2C)ccc1CNCCNC(C)=O [Compound 36],< 10 nM
5,COc1nc(OCc2cccc(-n3cnc(COc4ccc(CNCCNC(C)=O)c(OC)n4)c3C)c2C)ccc1CNCCNC(C)=O [Compound 38],> 1000 nM
6,COc1nc(OCc2sc(C)c(COc3ccc(CNCCNC(C)=O)c(OC)n3)c2C)ccc1CNCCNC(C)=O [Compound 40],> 1000 nM
7,COc1nc(OCc2cccc(-c3cccc(COc4ccc(CNCCNC(C)=O)c(OC)n4)c3Cl)c2Cl)ccc1CNCCNC(C)=O [Compound 43],< 10 nM
8,COc1nc(OCc2cccc(-n3c(C)nc(COc4ccc(CNCCNC(C)=O)c(OC)n4)c3C)c2C)ccc1CNCCNC(C)=O [Compound 44],> 1000 nM
9,CC(=O)NCCNCc1cc(Cl)c2nc(-c3cccc(-c4cccc(-c5nc6c(Cl)cc(CNCCNC(C)=O)cn6n5)c4C)c3C)nn2c1 [Compound 45],< 10 nM
10,COC(=O)[C@@H]1C[C@H](O)CN1Cc1ccc(OCc2cccc(-c3cccc(COc4ccc(CN5C[C@@H](O)C[C@H]5C(=O)OC)c(OC)n4)c3Cl)c2Cl)nc1OC [Compound 48],100 to 1000 nM
11,COc1nc(OCc2cccc(-c3cccc(COc4ccc(CN[C@@H](CC(N)=O)C(=O)O)c(OC)n4)c3C)c2C)ccc1CN[C@@H](CC(N)=O)C(=O)O [Compound 49],< 10 nM
12,COc1nc(OCc2cccc(-c3cccc(COc4ccc(CNC(C)(CO)CO)c(OC)n4)c3C)c2C)ccc1CNC(C)(CO)CO [Compound 50],< 10 nM
13,COc1nc(OCc2cccc(-c3cccc(COc4ccc(CN[C@H](C(=O)O)[C@@H](C)O)c(OC)n4)c3C)c2C)ccc1CN[C@H](C(=O)O)[C@@H](C)O [Compound 51],< 10 nM
14,COc1nc(OCc2cccc(-c3cccc(COc4ccc(CNC5CNC(=O)C5)c(OC)n4)c3C)c2C)ccc1CNC1CNC(=O)C1 (centres unmarked) [Compound 55],10 to 100 nM
15,COc1nc(OCc2cccc(-c3cccc(COc4ccc(CN5C[C@@H](O)C[C@H]5C(=O)O)c(OC)n4)c3Cl)c2Cl)ccc1CO [Compound 57],10 to 100 nM
16,COc1nc(OCc2cccc(-c3cccc(COc4ccc(CN5C[C@@H](O)C[C@H]5C(=O)O)c(OC)n4)c3Cl)c2Cl)ccc1CN1CC[C@H](O)C1 [Compound 58],< 10 nM

# Second part, the compound after the results:
row,IC50,SMILES
1,10 to 100 nM,"COc1nc(OCc2cccc(-c3cccc(COc4ccc(CN)c(OC)n4)c3C)c2C)ccc1CN [Compound 6, ((((2,2′-dimethyl-[1,1′-biphenyl)-3,3′-diyl)bis (methylene))bis (oxo))bis (2-methoxypyridine-6,3-diyl)) dimethylamine]"
2,< 10 nM,COc1nc(OCc2cccc(-c3cccc(COc4ccc(CN5CCCC[C@H]5C(=O)O)c(OC)n4)c3C)c2C)ccc1CN1CCCC[C@H]1C(=O)O [Compound 26]
3,< 10 nM,COc1nc(OCc2cccc(-c3cccc(COc4ccc(CN5CCCC[C@@H]5C(=O)O)c(OC)n4)c3C)c2C)ccc1CN1CCCC[C@@H]1C(=O)O [Compound 27]
4,< 10 nM,COc1nc(OCc2cccc(-c3cccc(COc4ccc(CN5CCC5C(=O)O)c(OC)n4)c3C)c2C)ccc1CN1CCC1C(=O)O (centres unmarked) [Compound 35]
5,< 10 nM,COc1nc(OCc2cccc(-c3cccc(COc4ccc(CNC5(C(=O)O)CC5)c(OC)n4)c3C)c2C)ccc1CNC1(C(=O)O)CC1 [Compound 37]
6,10 to 100 nM,COc1nc(OCc2cccc(-c3cccc(COc4ccc(CN5CCCC5CC(=O)O)c(OC)n4)c3C)c2C)ccc1CN1CCCC1CC(=O)O (centres unmarked) [Compound 39]
7,10 to 100 nM,COC(=O)[C@@H]1C[C@H](O)CN1Cc1ccc(OCc2cccc(-c3cccc(COc4ccc(CN5C[C@@H](O)C[C@H]5C(=O)OC)c(OC)n4)c3C)c2C)nc1OC [Compound 41]
8,< 10 nM,COc1nc(OCc2cccc(-c3cccc(COc4ccc(CN5CC(O)(C(=O)O)C5)c(OC)n4)c3C)c2C)ccc1CN1CC(O)(C(=O)O)C1 [Compound 42]
9,< 10 nM,COc1nc(OCc2cccc(-c3cccc(COc4ccc(CN5C[C@@H](O)C[C@H]5C(=O)O)c(OC)n4)c3Cl)c2Cl)ccc1CN1C[C@@H](O)C[C@H]1C(=O)O [Compound 46]
10,< 10 nM,COc1nc(OCc2cccc(-c3cccc(COc4ccc(CN5C[C@@H](O)C[C@H]5C(=O)O)c(OC)n4)c3C)c2C)ccc1CN1CC[C@H](O)C1 [Compound 47]
11,10 to 100 nM,COc1nc(OCc2cccc(-c3cccc(COc4ccc(CN5CC[C@@H](NC(C)=O)C5)c(OC)n4)c3C)c2C)ccc1CN1CC[C@@H](NC(C)=O)C1 [Compound 52]
12,100 to 1000 nM,COc1nc(OCc2cccc(-c3cccc(COc4ccc(CN5CCCC(C(N)=O)C5)c(OC)n4)c3C)c2C)ccc1CN1CCCC(C(N)=O)C1 (centres unmarked) [Compound 53]
13,10 to 100 nM,COc1nc(OCc2cccc(-c3cccc(COc4ccc(CN5CC[C@H](NC(C)=O)C5)c(OC)n4)c3C)c2C)ccc1CN1CC[C@H](NC(C)=O)C1 [Compound 54]
14,< 10 nM,COc1nc(OCc2cccc(-c3cccc(COc4ccc(CN5C[C@@H](O)C[C@H]5C(=O)O)c(OC)n4)c3C#N)c2C)ccc1CN1C[C@@H](O)C[C@H]1C(=O)O [Compound 56]
